Consider 1 compound from patent publication US20250084138A1, “POLYPEPTIDE HAVING EFFECT OF INHIBITING PROLIFERATION OF LEUKEMIA CELLS” (NANJING FENGRUI BIOTECHNOLOGY CO., LTD, priority 2019, published 2025).

In assay [1] the test system is Baf-3 cells of normal mouse hematopoietic cells (mIL-3 dependent). The assay is described as follows: Baf-3 normal cells co-incubated with the polypeptide, cell counting. Format: cell-based. As to the method:
(§1) The selected experimental cells were: • K562 cells of human chronic myeloid leukemia cell line (CML); • Jurkat cells of acute T lymphocyte leukemia cell line (T-ALL); • THP-1 cells of acute myeloid leukemia cell line (AML); • Baf-3 cells of normal mouse hematopoietic cells (mIL-3 dependent).
(§2) This experiment was grouped into a normal control group, a polypeptide control group, and an experimental polypeptide group.
(§3) Firstly, the polypeptide of the present disclosure was co-incubated with 5*103 (marked as the third power of 10) leukemia tumor cells for 38 h, and the proliferation speed of the cells was detected by two methods of detecting proliferation of the cells (CCK-8) and cell counting, so as to observe the inhibitory effect of the polypeptide on the tumor cells.
(§4) Secondly, the polypeptide was co-incubated with the cells for 24 h, and then collected again, counted, and cultured with drug addition for 38 h, and then detected for the proliferation rate of the cells (CCK-8).
Thirdly, we used normal mouse hematopoietic cells to carry out the same experiment as the above to observe the effect of the polypeptide on normal cells.
(§5) Each group included one blank (Control), one control peptide (C-p), and three target peptides (P-t, taking an average as the result)

The test system of assay [2] is various leukemia cells. In words: Overall conclusion on proliferation of the three leukemia cell lines. Format: cell-based. Conditions: K562, Jurkat, THP-1; positive correlation with dosage and times of administration. As to the method: as §1, §3, §4
The leukemia subtypes represented by the aforementioned three leukemia cells have covered more than 70% of the number of leukemia patients.

Assay [3] has as its system Jurkat cells of acute T lymphocyte leukemia cell line (T-ALL). In words: Jurkat cells co-incubated with the polypeptide, cell counting. Format: cell-based. As to the method:
as §1, §2, §3, §4, §5

Assay [4] relates to K562 cells of human chronic myeloid leukemia cell line (CML). The assay is described as follows: K562 cells co-incubated with the polypeptide, cell counting. It counts as cell-based. The method, then: as §1, §2, §3, §4, §5
Assay [5] deals with Baf-3 cells of normal mouse hematopoietic cells (mIL-3 dependent). Conditions: Baf-3 normal mouse hematopoietic cells.
For assay [6], the system named is THP-1 cells of acute myeloid leukemia cell line (AML). In words: Thp-1 cells co-incubated with the polypeptide, cell counting. Format: cell-based. The method, then:
as §1, §2, §3, §4, §5

Structures are written as SMILES. Peptide text beside a SMILES is read from it. * marks the point of attachment. Myristoyl = CCCCCCCCCCCCCC(=O)*

As for `CCCCCCCCCCCCCC(=O)N[C@@H](CCCCN)C(=O)N[C@@H](CCC(=O)O)C(=O)N[C@@H](CO)C(=O)N[C@@H](CCSC)C(=O)N[C@@H](CC(=O)O)C(=O)N[C@@H](C)C(=O)N[C@@H](CC(N)=O)C(=O)N[C@@H](CCCCN)C(=O)N1CCC[C@H]1C(=O)N[C@H](C(=O)N[C@@H](CCCCN)C(=O)N[C@@H](CC(N)=O)C(=O)N[C@@H](CC(C)C)C(=O)N1CCC[C@H]1C(=O)N[C@@H](CC(C)C)C(=O)N[C@@H](CCCCN)C(=O)N[C@@H](CCCCN)C(=O)N[C@H](C(=O)N1CCC[C@H]1C(=O)N[C@@H](CS)C(=O)N[C@@H](CCCCN)C(=O)N[C@H](C(=O)N[C@@H](CO)C(=O)N[C@@H](C)C(=O)N1CCC[C@H]1C(=O)N[C@@H](CO)C(=O)N[C@@H](CCC(N)=O)C(=O)N[C@@H](CO)C(=O)N[C@@H](Cc1ccccc1)C(=O)N[C@@H](Cc1ccccc1)C(=O)N[C@@H](C)C(=O)N[C@@H](CCCNC(=N)N)C(=O)N[C@@H](CC(=O)O)C(=O)N[C@@H](CC(N)=O)C(=O)N[C@H](C(=O)N[C@@H](C)C(=O)N[C@@H](CC(N)=O)C(=O)O)[C@@H](C)O)[C@@H](C)O)[C@@H](C)CC)[C@@H](C)O` [P-t] (Myristoyl-KESMDANKPTKNLPLKKIPCKTSAPSQSFFARDNTAN-OH), the Cell count in assay [1] (Baf-3, 10 uM, 24 + 38 h, first experiment) is reported as 100.11%; in assay [1] (Baf-3, 10 uM, 38 h, first experiment), 99.98%; in assay [1] (Baf-3, 15 uM, 24 + 38 h, second experiment) it was 100.83%; in assay [1] (Baf-3, 15 uM, 38 h, second experiment), 100.41%; in assay [3] (10 uM, 38 h, first experiment) it was 106%; in assay [3] (15 uM, 24 + 38 h, first experiment) it was 70.09 ± 18.75%. For the same compound, the Cell count in assay [3] (15 uM, 24 + 38 h, second experiment) is 65.12%; in assay [3] (15 uM, 38 h, first experiment), 69.55 ± 8.35 %; in assay [3] (15 uM, 38 h, second experiment) it was 73.17%; in assay [4] (K562, 10 uM, 24 + 38 h, first experiment) it was 66.95%; in assay [4] (K562, 10 uM, 38 h, first experiment), 90.22 ± 28.17%; in assay [4] (K562, 15 uM, 24 + 38 h, second experiment) it was 70.09%. Also, the Cell count in assay [4] (K562, 15 uM, 38 h, first experiment) came to 69.55%; in assay [4] (K562, 15 uM, 38 h, second experiment), 80.00%; in assay [6] (Thp-1, 10 uM, 38 h, first experiment), 80.56%; in assay [6] (Thp-1, 15 uM, 24 + 38 h, first experiment), 63.75%; in assay [6] (Thp-1, 15 uM, 24 + 38 h, second experiment) it was 68.22%; in assay [6] (Thp-1, 15 uM, 38 h, first experiment) it was 63.17 ± 2.50%. Further, the Cell count in assay [6] (Thp-1, 15 uM, 38 h, second experiment) came out at 70.09%. In addition, in assay [2], the “inhibition of the proliferation of various leukemia cells” value is “obviously inhibit”. In addition, in assay [5], the “inhibitory effect on the proliferation of normal cells” value is “no inhibitory effect”.
